Results from US12594267B2, “Capsid inhibitors for the treatment of HIV” (Gilead Sciences, Inc., priority 2018, dated 2026).
Read-outs that look alike come from different tables or passages of the source.

Key:
HIV-1 clinical isolates = assay: Antiviral activity against HIV-1 clinical isolates in PHA-stimulated human PBMCs; format: cell-based
Description: (§1) The antiretroviral activity of the compound of Formula (Ia) was tested against a panel of 22 HIV-1 clinical isolates of HIV-1 and two HIV-2 isolates in freshly isolated, PHA-stimulated human peripheral blood mononuclear cells (PBMCs). The HIV-1 isolates included representative strains from subtypes A, B, C, D, E, F, G, N, O, AE, and AG. Following a 7-day infection, virus production was determined by measuring reverse transcriptase activity in cell-free culture supernatants.

HIV-2 isolates = assay: Antiviral activity against HIV-2 isolates in PHA-stimulated human PBMCs; format: cell-based; conditions: Human immunodeficiency virus 2, PBMC, 168 h, 7-day infection, RT activity readout, mean of triplicate
Description: as §1

[1] = Plasma PK after single oral administration in solution, cynomolgus monkey; format: in vivo
Description: An oral formulation containing a compound of Formula (Ia) in […], 20% propylene glycol, 45 PEG 300, and 30% 0.01 N HCl was prepared. The formulation was orally administered to male rat, dog, cynomolgus monkey, and rhesus monkey according to the doses shown in Table 8 below.

[2] = PK after oral administration of spray-dried dispersion (SDD) tablets in dogs; format: in vivo; conditions: beagle dogs, 300 mg fixed dose
Description: A tablet, prepared from a spray-dried dispersion of a sodium salt of the compound of Formula (Ia), was prepared in a composition shown in Table T below (with an outer film coating made of Opadry® II White 85F18422, wherein the outer film coating provides a 3% weight gain based on the uncoated tablet) and was administered orally at 300 mg fixed dose to 6 beagle dogs (Table U) and the pharmacokinetic (PK) profile was determined. […] Plasma concentrations of the compound of Formula (Ia) were maintained above the target trough concentration of 20 nM for at least 14 days (2 weeks).

[3] = male, plasma, single oral 4.0 mg/kg, solution in 5% ethanol/20% propylene glycol/45% PEG 300/30% 0.01 N HCl, mean ± SD, n=3

SMILES: CC(C)(C#Cc1ccc(-c2ccc(Cl)c3c(NS(C)(=O)=O)nn(CC(F)(F)F)c23)c([C@H](Cc2cc(F)cc(F)c2)NC(=O)Cn2nc(C(F)(F)F)c3c2C(F)(F)[C@@H]2C[C@H]32)n1)S(C)(=O)=O [Formula (Ia), N—((S)-1-(3-(4-chloro-3-(methylsulfonamido)-1-(2,2,2-trifluoroethyl)-1H-indazol-7-yl)-6-(3-methyl-3-(methylsulfonyl)but-1-yn-1-yl)pyridin-2-yl)-2-(3,5-difluorophenyl)ethyl)-2-((3bS,4aR)-5,5-difluoro-3-(trifluoromethyl)-3b,4,4a,5-tetrahydro-1H-cyclopropa[3,4]cyclopenta[1,2-c]pyrazol-1-yl)acetamide]
- EC50 (HIV-1 clinical isolates; Human immunodeficiency virus 1, BAL, PBMC, 168 h, read-out: EC50 in human PBMCs, HIV-1 subtype B isolate Ba-L, 7-day infection, RT activity readout, mean of triplicate): 0.04 nM
- EC50 (HIV-1 clinical isolates; Human immunodeficiency virus 1, PBMC, 168 h, read-out: EC50 in human PBMCs, HIV-1 CRF01_AE isolate 90TH_CM235, 7-day infection, RT activity readout, mean of triplicate): 0.04 nM
- EC50 (HIV-1 clinical isolates; Human immunodeficiency virus 1, PBMC, 168 h, read-out: EC50 in human PBMCs, HIV-1 CRF02_AG isolate 01CM0008BBY, 7-day infection, RT activity readout, mean of triplicate): 0.05 nM
- EC50 (HIV-1 clinical isolates; Human immunodeficiency virus 1, PBMC, 168 h, read-out: EC50 in human PBMCs, HIV-1 CRF02_AG isolate 91DJ263, 7-day infection, RT activity readout, mean of triplicate): 0.04 nM
- EC50 (HIV-1 clinical isolates; Human immunodeficiency virus 1, PBMC, 168 h, read-out: EC50 in human PBMCs, HIV-1 Group N isolate YBF30, 7-day infection, RT activity readout, mean of triplicate): 0.02 nM
- EC50 (HIV-1 clinical isolates; Human immunodeficiency virus 1, PBMC, 168 h, read-out: EC50 in human PBMCs, HIV-1 Group O isolate BCF01, 7-day infection, RT activity readout, mean of triplicate): 0.04 nM
- EC50 (HIV-1 clinical isolates; Human immunodeficiency virus 1, PBMC, 168 h, read-out: EC50 in human PBMCs, HIV-1 subtype A isolate 92UG031, 7-day infection, RT activity readout, mean of triplicate): 0.04 nM
- EC50 (HIV-1 clinical isolates; Human immunodeficiency virus 1, PBMC, 168 h, read-out: EC50 in human PBMCs, HIV-1 subtype A isolate 92UG037, 7-day infection, RT activity readout, mean of triplicate): 0.07 nM
- EC50 (HIV-1 clinical isolates; Human immunodeficiency virus 1, PBMC, 168 h, read-out: EC50 in human PBMCs, HIV-1 subtype B isolate 89BZ_167, 7-day infection, RT activity readout, mean of triplicate): 0.08 nM
- EC50 (HIV-1 clinical isolates; Human immunodeficiency virus 1, PBMC, 168 h, read-out: EC50 in human PBMCs, HIV-1 subtype B isolate 90US_873, 7-day infection, RT activity readout, mean of triplicate): 0.04 nM
- EC50 (HIV-1 clinical isolates; Human immunodeficiency virus 1, PBMC, 168 h, read-out: EC50 in human PBMCs, HIV-1 subtype B isolate 91US001, 7-day infection, RT activity readout, mean of triplicate): 0.03 nM
- EC50 (HIV-1 clinical isolates; Human immunodeficiency virus 1, PBMC, 168 h, read-out: EC50 in human PBMCs, HIV-1 subtype B isolate 91US004, 7-day infection, RT activity readout, mean of triplicate): 0.04 nM
- EC50 (HIV-1 clinical isolates; Human immunodeficiency virus 1, PBMC, 168 h, read-out: EC50 in human PBMCs, HIV-1 subtype B isolate 96TH_NP1538, 7-day infection, RT activity readout, mean of triplicate): 0.05 nM
- EC50 (HIV-1 clinical isolates; Human immunodeficiency virus 1, PBMC, 168 h, read-out: EC50 in human PBMCs, HIV-1 subtype B isolate JR-CSF, 7-day infection, RT activity readout, mean of triplicate): 0.04 nM
- EC50 (HIV-1 clinical isolates; Human immunodeficiency virus 1, PBMC, 168 h, read-out: EC50 in human PBMCs, HIV-1 subtype C isolate 92BR025, 7-day infection, RT activity readout, mean of triplicate): 0.05 nM
- EC50 (HIV-1 clinical isolates; Human immunodeficiency virus 1, PBMC, 168 h, read-out: EC50 in human PBMCs, HIV-1 subtype C isolate 98US_MSC5016, 7-day infection, RT activity readout, mean of triplicate): 0.1 nM
- EC50 (HIV-1 clinical isolates; Human immunodeficiency virus 1, PBMC, 168 h, read-out: EC50 in human PBMCs, HIV-1 subtype D isolate 92UG001, 7-day infection, RT activity readout, mean of triplicate): 0.02 nM
- EC50 (HIV-1 clinical isolates; Human immunodeficiency virus 1, PBMC, 168 h, read-out: EC50 in human PBMCs, HIV-1 subtype D isolate 98UG_57128, 7-day infection, RT activity readout, mean of triplicate): 0.03 nM
- EC50 (HIV-1 clinical isolates; Human immunodeficiency virus 1, PBMC, 168 h, read-out: EC50 in human PBMCs, HIV-1 subtype E isolate CMU02, 7-day infection, RT activity readout, mean of triplicate): 0.05 nM
- EC50 (HIV-1 clinical isolates; Human immunodeficiency virus 1, PBMC, 168 h, read-out: EC50 in human PBMCs, HIV-1 subtype E isolate CMU08, 7-day infection, RT activity readout, mean of triplicate): 0.05 nM
- EC50 (HIV-1 clinical isolates; Human immunodeficiency virus 1, PBMC, 168 h, read-out: EC50 in human PBMCs, HIV-1 subtype F isolate 93BR020, 7-day infection, RT activity readout, mean of triplicate): 0.05 nM
- EC50 (HIV-1 clinical isolates; Human immunodeficiency virus 1, PBMC, 168 h, read-out: EC50 in human PBMCs, HIV-1 subtype G isolate JV1083, 7-day infection, RT activity readout, mean of triplicate): 0.16 nM
- EC50 (HIV-1 clinical isolates; Human immunodeficiency virus 1, PBMC, read-out: HIV-1 EC50 Mean ± s.d., mean over the 22 HIV-1 clinical isolates, human PBMCs): 0.05 ± 0.03 nM
- EC50 (HIV-1 clinical isolates; Human immunodeficiency virus 1, PBMC, read-out: HIV-1 EC50 Median, median over the 22 HIV-1 clinical isolates, human PBMCs): 0.04 nM
- EC50 (HIV-1 clinical isolates; Human immunodeficiency virus 1, PBMC, read-out: HIV-1 EC50 Range, range over the 22 HIV-1 clinical isolates, human PBMCs): 0.02 to 0.16 nM
- EC50 (HIV-2 isolates; HIV-2 isolate CBL-20): 0.57 nM
- EC50 (HIV-2 isolates; HIV-2 isolate CDC310319): 1.02 nM
- bioavailability ([1]; male, plasma, single oral 4.0 mg/kg, same solution, calculated based on AUC0-24h, mean ± SD, n=3, read-out: F (oral bioavailability)): 2.2 ± 0.6%
- Cmax [1, 3]: 17.7 ± 5.6 µM
- Tmax [1, 3]: 8.7 ± 3.1 h
- AUC(0-t) ([1]; male, plasma, single oral 4.0 mg/kg, solution in 5% ethanol/20% propylene glycol/45% PEG 300/30% 0.01 N HCl, mean ± SD, n=3, read-out: AUC0-24h): 298 ± 85 µM·h
- F % (bioavailability), in words ([1]; oral solution): low
- Time plasma concentrations maintained above the target trough concentration of 20 nM ([2]; oral SDD tablet of the sodium salt): at least 14 days
- AUC(0-inf) ([2]; dog, plasma, oral SDD tablet of the sodium salt (Table T composition, Opadry II White film coat), mean ± SD, n=6): 18.5 ± 11.1 µM·h
